# Data published in PubChem BioAssay (NCI).
#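 Compound exposure: 48 hours, 5 concentrations, 96-well plates. GI50: concentration for 50% inhibition of growth. TGI is the concentration that stops growth completely.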
# Columns and labels:
# Assay in all cases: NCI anticancer screen, dose series, 48 h
# [1] = tested on: HCT-15 colon
# [2] = tested on: OVCAR-4 ovarian
# [3] = tested on: ACHN renal
# [4] = tested on: UO-31 renal
# [5] = tested on: CAKI-1 renal
# [6] = tested on: HL-60(TB) leukemia
# [7] = tested on: RXF 393 renal
# [8] = tested on: IGROV1 ovarian
# [9] = tested on: NCI-H522 lung
# [10] = tested on: LOX IMVI melanoma
SMILES,TGI [1],TGI [2],TGI [3],TGI [4],TGI [5],TGI [6],TGI [7],TGI [8],TGI [9],TGI [10],GI50 [1],GI50 [2],GI50 [3],GI50 [4],GI50 [5],GI50 [6],GI50 [7],GI50 [8],GI50 [9],GI50 [10]
O=c1oc2ccc(Cl)cc2cc1-c1cn2ccsc2n1,> 100 µM,> 100 µM,> 100 µM,> 100 µM,> 100 µM,85.1 µM,> 100 µM,> 100 µM,47.9 µM,> 100 µM,,,,,,,,,,
CO[P@]1(=O)O[C@@H](c2ccccc2)[C@H](O)[C@@]1(O)c1ccccc1,> 100 µM,> 100 µM,> 100 µM,> 100 µM,> 100 µM,> 100 µM,> 100 µM,> 100 µM,> 100 µM,> 100 µM,,,,,,,,,,
Cc1cn([C@H]2[C@@H](CO)C[C@H]2O)c(=O)[nH]c1=O,> 100 µM,> 100 µM,> 100 µM,> 100 µM,> 100 µM,> 100 µM,> 100 µM,> 100 µM,> 100 µM,> 100 µM,,,,,,,,,,
CC1(C)CCC2(C(=O)OC3OC(CO)C(O)C(O)C3O)CCC3(CO)C(=CCC4C5(C)CC(O)C(O)C(C)(C(=O)OC6OC(CO)C(O)C(O)C6O)C5CCC43C)C2C1 (stereo not given),> 100 µM,> 100 µM,> 100 µM,> 100 µM,> 100 µM,> 100 µM,> 100 µM,> 100 µM,> 100 µM,> 100 µM,,,,,,,,,,
O=C1CSC2(CC(/C=C/c3ccccc3Br)=NN2c2cccc(S(=O)(=O)O)c2)N1c1nc2ccccc2s1 (stereo not given),> 100 µM,> 100 µM,> 100 µM,> 100 µM,> 100 µM,> 100 µM,> 100 µM,> 100 µM,> 100 µM,> 100 µM,,,,,,,,,,
Oc1[nH]c2ccccc2c1/C=c1/cc2c(c(-c3ccc(C(F)(F)F)cc3)n1)=Nc1ccccc1-2,15.8 µM,13.6 µM,11.5 µM,20.7 µM,27.5 µM,9.25 µM,15.3 µM,28.8 µM,14.3 µM,22.5 µM,3.59 µM,2.75 µM,2.72 µM,2.55 µM,3.96 µM,3.41 µM,3.08 µM,8.25 µM,1.67 µM,8.87 µM
COc1ccc(C=Nc2ccc(-c3nc4ccccc4[nH]3)cc2)cc1OC,> 100 µM,> 100 µM,> 100 µM,> 100 µM,> 100 µM,> 100 µM,> 100 µM,> 100 µM,> 100 µM,> 100 µM,,,,,,,,,,
COc1ccc(C(=O)c2ccc(-n3cc(/C=C/[N+](=O)[O-])c4ccccc43)cc2)cc1,41.1 µM,> 100 µM,52 µM,37.1 µM,> 52.3 µM,44.6 µM,10.8 µM,26.2 µM,33.8 µM,19.2 µM,,,,,,,,,,
CC(=O)c1ccc(NC(=O)CSc2nc(C)nc3c2sc(=S)n3-c2ccccc2)cc1,> 3.16 µM,> 3.16 µM,> 3.16 µM,> 10 µM,> 3.16 µM,> 3.16 µM,> 3.16 µM,> 3.16 µM,> 3.16 µM,> 3.16 µM,,,,,,,,,,
COC(=O)c1ccc(/C=C2\CCc3ccccc3C2=O)cc1,> 100 µM,> 100 µM,> 100 µM,> 100 µM,> 100 µM,> 100 µM,> 100 µM,> 100 µM,> 100 µM,> 100 µM,,,,,,,,,,
C/C(=N\Nc1ccccc1)C(CN(C)C)C(c1ccccc1)c1c(O)c2ccccc2oc1=O (stereo not given),> 100 µM,> 100 µM,> 100 µM,> 100 µM,> 100 µM,> 100 µM,> 100 µM,> 100 µM,> 100 µM,> 100 µM,,,,,,,,,,
Cc1cc(=O)[nH]c(NNC(C#N)c2ccc([N+](=O)[O-])cc2)n1 (stereo not given),> 100 µM,> 100 µM,> 100 µM,> 100 µM,> 100 µM,> 100 µM,> 100 µM,> 100 µM,> 100 µM,> 100 µM,,,,,,,,,,
CC/C(Cl)=N\OC(=O)Nc1ccc(F)cc1F,5.24 µM,34.8 µM,3.78 µM,29.4 µM,3.09 µM,4.31 µM,27.7 µM,31.9 µM,3.65 µM,6.57 µM,,,,,,,,,,
O=C1CC2(CCNCC2)C(=O)N1N1CCOCC1,> 100 µM,> 100 µM,> 100 µM,> 100 µM,> 100 µM,> 100 µM,> 100 µM,> 100 µM,> 100 µM,> 100 µM,,,,,,,,,,
CC(C)(C)OC(=O)N1CCc2c(n(C/C=C/c3ccccc3)[nH]c2=O)C1,> 100 µM,> 100 µM,> 100 µM,> 100 µM,> 100 µM,> 100 µM,> 100 µM,> 100 µM,> 100 µM,> 100 µM,,,,,,,,,,
O=C1C=C(N2CCN(c3ccccn3)CC2)C(=O)c2c(O)ccc(O)c21,39.1 µM,28.2 µM,> 56.2 µM,> 46.4 µM,> 46.4 µM,20.3 µM,43.4 µM,43.5 µM,41.2 µM,> 45 µM,,,,,,,,,,
OC12CCCCCC1(N1CCOCC1)c1ccccc12 (stereo not given),> 100 µM,> 100 µM,> 100 µM,> 100 µM,> 100 µM,> 100 µM,> 100 µM,> 100 µM,> 100 µM,> 100 µM,,,,,,,,,,
O=[N+]([O-])/C=C/c1cn(CCCCCn2cc(/C=C/[N+](=O)[O-])c3ccccc32)c2ccccc12,8.67 µM,7.1 µM,13.9 µM,9.78 µM,> 53.6 µM,2.5 µM,1.35 µM,5.81 µM,50.4 µM,1.51 µM,,,,,,,,,,

SMILES,TGI [1],TGI [2],TGI [3],TGI [4],TGI [5],TGI [6],TGI [7],TGI [8],TGI [9],TGI [10],GI50 [1],GI50 [2],GI50 [3],GI50 [4],GI50 [5],GI50 [6],GI50 [7],GI50 [8],GI50 [9],GI50 [10]
NC(=O)C1=CC2C3C=CC2(O)C(=O)OC3O1 (stereo not given),13.9 µM,13.2 µM,15.7 µM,13.7 µM,17 µM,10.5 µM,8.23 µM,11.7 µM,4.31 µM,5.18 µM,,,,,,,,,,
Cc1ccc(/C=C2\CN(C)CC3C2=NC(=S)NC3c2ccc(C)cc2)cc1 (stereo not given),> 100 µM,> 100 µM,> 100 µM,> 100 µM,> 100 µM,> 100 µM,> 87.1 µM,> 80.1 µM,> 100 µM,> 100 µM,,,,,,,,,,
CCN(CC)CCCCC1CCN(CC(=O)N2c3ccccc3NC(=O)CC2C)CC1 (stereo not given),> 100 µM,> 100 µM,> 100 µM,> 100 µM,> 100 µM,> 100 µM,> 100 µM,> 100 µM,> 100 µM,47.6 µM,,,,,,,,,,
O=S(=O)(O)C1CCC(O)C2[N-]CCCC21.O=S(=O)(O)C1CCC(O)C2[N-]CCCC21.[Zn+2] (stereo not given),> 100 µM,> 100 µM,> 100 µM,> 100 µM,> 100 µM,51 µM,> 100 µM,> 100 µM,> 100 µM,> 100 µM,,,,,,,,,,
Cc1c2cccc-2ccc2c1[nH]c1ccccc12,9.01 µM,5.09 µM,3.2 µM,3.14 µM,19.3 µM,9.38 µM,9.42 µM,5.77 µM,3.9 µM,6.41 µM,,,,,,,,,,
O=c1c2c(nc3n1CCC3)sc1c(O)c(Br)ccc12,45.7 µM,54.9 µM,35.8 µM,45.8 µM,> 100 µM,33.8 µM,> 100 µM,82.5 µM,37.9 µM,27.1 µM,,,,,,,,,,
COC(=O)C(C(=O)C(=O)NC1Nc2ccc(C)cc2S1)c1nc2ccc(Cl)cc2[nH]c1=O (stereo not given),> 100 µM,> 100 µM,> 100 µM,> 100 µM,> 100 µM,> 100 µM,> 100 µM,> 100 µM,> 100 µM,> 100 µM,,,,,,,,,,
CC1=C2NCN(C)N=C2C(C#N)(C#N)C1(C#N)C#N,40.5 µM,34.8 µM,33 µM,36.7 µM,17.9 µM,4.84 µM,42.7 µM,> 63 µM,28.5 µM,> 54.4 µM,,,,,,,,,,
CCCNC(=O)CCC(C)[C@H]1CCC2C3C(C[C@H](OC(C)=O)[C@@]21C)[C@@]1(C)CCC2(C[C@H]1C[C@H]3OC(C)=O)OOC1(CCCCC1)OO2 (stereo not given in full),> 100 µM,26.6 µM,2.62 µM,0.232 µM,1.54 µM,3.94 µM,27.7 µM,2.22 µM,1.44 µM,3.52 µM,,,,,,,,,,
Cn1c(=O)sc2cc(C(=S)N3CCOCC3)ccc21,> 100 µM,> 100 µM,> 100 µM,> 100 µM,> 100 µM,> 100 µM,> 100 µM,> 100 µM,> 100 µM,> 100 µM,,,,,,,,,,
CC1(C)COC(c2c(-c3ccccc3)noc2CS(=O)c2ccccc2)=N1 (stereo not given),> 100 µM,> 100 µM,> 100 µM,> 100 µM,> 100 µM,84.6 µM,> 100 µM,> 100 µM,> 100 µM,> 100 µM,,,,,,,,,,
CC(C)=CCC[C@@H](C)c1c2[nH]c3ccccc3sc-2c(C)c(=O)c1=O,> 75 µM,> 75 µM,10.8 µM,14.4 µM,35.2 µM,5.02 µM,32.7 µM,26.3 µM,8.6 µM,> 29 µM,,,,,,,,,,
O=[N+]([O-])c1ccc(NS(=O)(=O)C(F)(F)F)cc1,> 100 µM,> 100 µM,> 100 µM,> 100 µM,> 100 µM,> 100 µM,> 100 µM,> 100 µM,> 100 µM,> 100 µM,,,,,,,,,,
O=C(/C=C/c1ccco1)c1cccc(C(=O)/C=C/c2ccco2)n1,28.1 µM,> 100 µM,72.7 µM,24.9 µM,> 100 µM,0.417 µM,> 65.1 µM,53.5 µM,19.6 µM,5.37 µM,,,,,,,,,,
Cc1cc2occ(-c3ccc(Cl)cc3)c2c(=O)o1,> 100 µM,> 100 µM,> 100 µM,> 100 µM,> 100 µM,> 100 µM,> 100 µM,> 100 µM,> 100 µM,> 100 µM,,,,,,,,,,
CC(C)C1CC(CO)(CNc2cc(Cl)nc(N)n2)C1 (stereo not given),> 100 µM,> 100 µM,> 100 µM,> 100 µM,> 100 µM,> 100 µM,> 100 µM,> 100 µM,> 100 µM,> 100 µM,,,,,,,,,,
CCCCCCCCCCCCCCCCOCC(Cl)COP(=O)(O)OP(=O)(O)OCC1OC(n2cnc3c(N)ncnc32)C(O)C1O (stereo not given),> 100 µM,> 100 µM,> 100 µM,> 100 µM,> 100 µM,> 100 µM,> 100 µM,> 100 µM,> 100 µM,> 100 µM,,,,,,,,,,
